The numbers were not newly measured in patent EP4570255A1, “SPORICIDAL ANTIMICROBIAL COMPOSITIONS AND USES THEREOF” (Silva, Renata Moisés Iwamizu, priority 2022, dated 2024), which cites them from elsewhere.

Structures can show the parent of a compound that is named as a salt.

Turning to `[H]/N=C(\N/C(=N/[H])NCCCCCCNC(=N)NC(=N)Nc1ccc(Cl)cc1)Nc1ccc(Cl)cc1` [diacetate salt, 1,1'-hexamethylene-bis-(5-(p-chlorophenyl)biguanide)], the solubility in water result is listed as “about 1.8%”.

In the case of `[H]/N=C(\N/C(=N/[H])NCCCCCCNC(=N)NC(=N)Nc1ccc(Cl)cc1)Nc1ccc(Cl)cc1` [digluconate salt, 1,1'-hexamethylene-bis-(5-(p-chlorophenyl)biguanide)], the solubility in water result is listed as “about 70%”.
